Measurements published in ChEMBL document CHEMBL5050861 (2021).
Values after ≈ are worked out from the molar mass of the structure shown.

Key:
[1] = Inhibition of recombinant mouse GALK1 using ATP as substrate incubated for 1 hr and measured by Kinase-Glo assay
[2] = Stability of compound in rat microsomes assessed as half-life; format: ADME, Microsome
[3] = Kinetic aqueous solubility of the compound; format: physicochemical; details: buffer; read-out: Kinetic_solubility

Row | Compound | IC50 ([1]; read-out: IC50) [µM] | half-life [2] [min] | solubility kinetic [3] [µg/mL] | IC50 [1]
1 | COc1ccc([C@@H]2N=C(Nc3nc4ccc(F)cc4o3)NC(C)=C2C(=O)Nc2cc(C(=O)O)ccn2)c(Cl)c1 | 1.99 | – | – | –
2 | CC1=C(C(=O)NCc2cnn(CC(F)(F)F)c2)C(c2ccc(C)cc2Cl)N=C(Nc2nc3ccc(F)c(N)c3o2)N1 (configuration not stated) | 3.06 | 18.7 | 1.56 (≈ 2.64 µM) | –
3 | CCn1cc(CNC(=O)C2=C(C)NC(Nc3nc4ccc(F)c(N)c4o3)=NC2c2ccccc2Cl)cn1 (configuration not stated) | 2.17 | 17.7 | 23.9 (≈ 45.6 µM) | –
4 | CC1=C(C(=O)NCc2cnn(C(C)(C)C)c2)C(c2ccc(C)cc2Cl)N=C(Nc2nc3ccc(F)c(N)c3o2)N1 (configuration not stated) | 4.32 | 14.4 | < 1 | –
5 | CC1=C(C(=O)NCc2cnn(C)c2)[C@H](c2ccc(C)cc2Cl)N=C(Nc2nc3cccc(N)c3o2)N1 | 1.58 | 18.9 | 17.1 (≈ 33.9 µM) | –
6 | CCn1cc(CNC(=O)C2=C(C)NC(Nc3nc4cccc(N)c4o3)=NC2c2ccc(Cl)cc2Cl)cn1 (configuration not stated) | 8.63 | 14.1 | 4.6 (≈ 8.53 µM) | –
7 | CC1=C(C(=O)NCc2cnn(C)c2C)C(c2ccc(C)cc2Cl)N=C(Nc2nc3ccc(F)cc3o2)N1 (configuration not stated) | 3.43 | 2.99 | < 1 | –
8 | CC1=C(C(=O)Nc2cc(N(C)C)ccn2)C(c2ccc(C)cc2Cl)N=C(Nc2nc3cccc(N)c3o2)N1 (configuration not stated) | 15.3 | 11.7 | 4.6 (≈ 8.66 µM) | –
9 | CC1=C(C(=O)Nc2cc(C(=O)O)ccn2)C(c2ccccc2Cl)N=C(Nc2nc3cccc([N+](=O)[O-])c3o2)N1 (configuration not stated) | 38.5 | > 30 | 7.3 (≈ 13.3 µM) | –
10 | CC1=C(C(=O)Nc2nncs2)C2(CCOC2)N=C(Nc2nc3ccccc3o2)N1 (configuration not stated) | – | > 30 | 37.9 (≈ 92.1 µM) | Not Active
11 | CC1=C(C(=O)NCc2cnn(C)c2)C(c2ccc(Cl)cc2Cl)N=C(Nc2nc3ccc(F)c(N)c3o2)N1 (configuration not stated) | 1.93 | > 30 | 5.9 (≈ 10.9 µM) | –
12 | CCn1nc(C)c(CNC(=O)C2=C(C)NC(Nc3nc4ccc(F)c(N)c4o3)=NC2c2ccc(C)cc2Cl)c1F (configuration not stated) | 2.17 | 3.55 | 1.53 (≈ 2.69 µM) | –
13 | CC1=C(C(=O)NCc2cnn(C)c2)C(c2ccccc2Cl)N=C(Nc2nc3cccc(N)c3o2)N1 (configuration not stated) | 3.43 | > 30 | > 72 | –
14 | CC1=C(C(=O)NCc2cnn(C)c2)C(c2ccc(C)cc2Cl)N=C(Nc2nc3cccnc3o2)N1 (configuration not stated) | – | 3.66 | 4.8 (≈ 9.78 µM) | Not Active
15 | CC1=C(C(=O)NCc2cnn(Cc3ccccc3)c2)C(c2ccc(C)cc2Cl)N=C(Nc2nc3cccc(N)c3o2)N1 (configuration not stated) | 5.44 | 6.73 | < 1 | –
16 | CC1=C(C(=O)Nc2cc(C(=O)O)ccn2)C(c2ccc(C)cc2Cl)N=C(Nc2ncc(-c3ccccc3)o2)N1 (configuration not stated) | – | > 30 | 42.2 (≈ 77.7 µM) | –
17 | CCn1cc(CNC(=O)C2=C(C)NC(Nc3nc4cccc(N)c4o3)=NC2c2ccc(C)cc2Cl)cn1 (configuration not stated) | 3.06 | 11.3 | 2.43 (≈ 4.68 µM) | –
18 | CC1=C(C(=O)NCc2cnn(C)c2)C(c2ccc(Cl)cc2Cl)N=C(Nc2nc3cccc(N)c3o2)N1 (configuration not stated) | 6.85 | 17.8 | 15.6 (≈ 29.7 µM) | –
19 | CC1=C(C(=O)NCc2cnn(Cc3ccccc3)c2)C(c2ccc(C)cc2Cl)N=C(Nc2nc3ccc(F)cc3o2)N1 (configuration not stated) | 5.44 | 2.74 | < 1 | –
20 | CCn1cc(CNC(=O)C2=C(C)NC(Nc3nc4cccc(N)c4o3)=NC2c2ccc(F)cc2Cl)cn1 (configuration not stated) | 7.69 | 18.8 | – | –
21 | CC1=C(C(=O)NCc2cnn(C)c2)C(c2ccc(C)cc2Cl)N=C(Nc2nc3cnccc3o2)N1 (configuration not stated) | 12.2 | 5.12 | > 49 | –
22 | CC1=C(C(=O)NCc2cnn(C)c2)C(c2ccccc2Cl)N=C(Nc2nc3ccc(F)cc3o2)N1 (configuration not stated) | 12.2 | 26 | 13.7 (≈ 27.7 µM) | –
23 | CC1=C(C(=O)Nc2cc(C(=O)O)ccc2C)C(c2ccccc2Cl)N=C(Nc2nc3ccc(F)cc3o2)N1 (configuration not stated) | 17.2 | – | – | –
24 | COc1ccc([C@H]2N=C(Nc3nc4ccc(F)cc4o3)NC(C)=C2C(=O)Nc2cc(C(=O)O)ccn2)c(Cl)c1 | 19.3 | – | – | –
25 | CCn1cc(CNC(=O)C2=C(C)NC(Nc3nc4ccc(F)c(N)c4o3)=N[C@H]2c2ccc(C)cc2Cl)cn1 | 0.97 | – | 22.1 (≈ 41.1 µM) | –

Next, values leading:

Row | IC50 ([1]; read-out: IC50) [µM] | half-life [2] [min] | solubility kinetic [3] [µg/mL] | IC50 [1] | Compound
26 | 12.2 | > 30 | < 1 | – | COC(=O)c1cccc(NC(=O)C2=C(C)NC(Nc3nc4ccccc4o3)=NC2c2ccccc2Cl)n1 (configuration not stated)
27 | 12.2 | – | – | – | CC1=C(C(=O)Nc2ccc(-c3cn[nH]c3)cc2)C(c2ccccc2Cl)N=C(Nc2nc3ccccc3o2)N1 (configuration not stated)
28 | 9.68 | 17.7 | < 1 | – | COC(=O)c1ccc(NC(=O)C2=C(C)NC(Nc3nc4ccccc4o3)=NC2c2ccccc2Cl)cc1 (configuration not stated)
29 | 12.2 | 15.7 | 24.2 (≈ 50.8 µM) | – | CC1=C(C(=O)NCc2cnn(C)c2)C(c2ccccc2Cl)N=C(Nc2nc3ccccc3o2)N1 (configuration not stated)
30 | 9.68 | > 30 | < 1 | – | CC1=C(C(=O)Nc2cc(CO)ccn2)C(c2ccccc2Cl)N=C(Nc2nc3ccccc3o2)N1 (configuration not stated)
31 | 6.85 | > 30 | 3 (≈ 5.87 µM) | – | CC1=C(C(=O)Nc2nncs2)C(c2ncccc2Br)N=C(Nc2nc3ccccc3o2)N1 (configuration not stated)
32 | 5.44 | > 30 | < 1 | – | COc1ccc(C2N=C(Nc3nc4ccccc4o3)NC(C)=C2C(=O)Nc2nncs2)c(Cl)c1 (configuration not stated)
33 | – | 26.6 | – | – | CC1=C(C(=O)Nc2cccc(CCO)c2)C(c2ccccc2Cl)N=C(Nc2nc3ccccc3o2)N1 (configuration not stated)
34 | 17.2 | > 30 | 12.8 (≈ 27.2 µM) | – | CC1=C(C(=O)Nc2nncs2)C(c2nn(C)cc2Cl)N=C(Nc2nc3ccccc3o2)N1 (configuration not stated)
35 | 21.7 | > 30 | < 1 | – | CC1=C(C(=O)Nc2ccc(C(=O)N3CCOCC3)cc2)C(c2ccccc2Cl)N=C(Nc2nc3ccccc3o2)N1 (configuration not stated)
36 | 10.9 | > 30 | < 1 | – | CC1=C(C(=O)Nc2ccccn2)C(c2ccccc2Cl)N=C(Nc2nc3ccc(F)cc3o2)N1 (configuration not stated)
37 | 12.2 | > 30 | < 1 | – | CC1=C(C(=O)Nc2nncs2)C(c2ccccc2C(F)(F)F)N=C(Nc2nc3ccccc3o2)N1 (configuration not stated)
38 | – | > 30 | 1.8 (≈ 3.23 µM) | – | CC1=C(C(=O)Nc2nnc(-c3cccnc3)s2)C(c2ccccc2Cl)N=C(Nc2nc3cc(N)ccc3o2)N1 (configuration not stated)
39 | 19.3 | > 30 | 11.4 (≈ 22.8 µM) | – | CC1=C(C(=O)Nc2nncs2)C(c2n[nH]cc2Br)N=C(Nc2nc3ccccc3o2)N1 (configuration not stated)
40 | 12.2 | 6.57 | < 1 | – | CC1=C(C(=O)NCc2cccc(CO)c2)C(c2ccccc2Cl)N=C(Nc2nc3ccccc3o2)N1 (configuration not stated)
41 | – | > 30 | 38.7 (≈ 75.2 µM) | Not Active | CC1=C(C(=O)Nc2nncs2)C(c2c(Br)cnn2C)N=C(Nc2nc3ccccc3o2)N1 (configuration not stated)
42 | 19.3 | > 30 | < 1 | – | CC1=C(C(=O)Nc2nnc(-c3ccncc3)s2)C(c2ccccc2Cl)N=C(Nc2nc3ccccc3o2)N1 (configuration not stated)
43 | 8.63 | 8.49 | < 1 | – | COC(=O)c1ccc(CNC(=O)C2=C(C)NC(Nc3nc4ccccc4o3)=NC2c2ccccc2Cl)cc1 (configuration not stated)

Row | IC50 ([1]; read-out: IC50) [µM] | half-life [2] [min] | solubility kinetic [3] [µg/mL] | IC50 [1] | Compound
44 | 19.3 | > 30 | < 1 | – | CC1=C(C(=O)Nc2ccc(CO)cn2)C(c2ccccc2Cl)N=C(Nc2nc3ccc(F)cc3o2)N1 (configuration not stated)
45 | 21.7 | > 30 | 2.1 (≈ 3.96 µM) | – | O=C(Nc1nncs1)C1=C(c2cnccn2)NC(Nc2nc3ccccc3o2)=NC1c1ccccc1Cl (configuration not stated)
46 | 9.68 | > 30 | < 1 | – | CC1=C(C(=O)Nc2ccccc2F)C(c2ccccc2Cl)N=C(Nc2nc3ccccc3o2)N1 (configuration not stated)
47 | 13.7 | 11.5 | < 1 | – | CC1=C(C(=O)Nc2ccc(N(C)C)cc2)C(c2ccccc2Cl)N=C(Nc2nc3ccccc3o2)N1 (configuration not stated)
48 | 15.3 | 13.8 | < 1 | – | CC1=C(C(=O)NCc2ccc(CO)cc2)C(c2ccccc2Cl)N=C(Nc2nc3ccccc3o2)N1 (configuration not stated)
49 | 17.2 | > 30 | < 1 | – | COc1ccc(Cl)c(C2N=C(Nc3nc4ccccc4o3)NC(C)=C2C(=O)Nc2nncs2)c1 (configuration not stated)
50 | 17.2 | > 30 | 21.9 (≈ 42.1 µM) | – | O=C(Nc1nncs1)C1=C(C(F)(F)F)NC(Nc2nc3ccccc3o2)=NC1c1ccccc1Cl (configuration not stated)
51 | – | > 30 | 60.3 (≈ 120 µM) | – | CC1=C(C(=O)Nc2cncc(C(=O)O)c2)C(c2ccccc2Cl)N=C(Nc2nc3ccccc3o2)N1 (configuration not stated)
52 | 17.2 | > 30 | < 1 | – | CC(C)CC1=C(C(=O)Nc2nncs2)C(c2ccccc2Cl)N=C(Nc2nc3ccccc3o2)N1 (configuration not stated)
53 | 12.2 | 20 | < 1 | – | CC1=C(C(=O)Nc2cccnc2)C(c2ccccc2Cl)N=C(Nc2nc3ccccc3o2)N1 (configuration not stated)
54 | 21.7 | > 30 | < 1 | – | CC1=C(C(=O)Nc2nncs2)C(c2ccccc2C)N=C(Nc2nc3ccccc3o2)N1 (configuration not stated)
55 | 19.3 | – | – | – | CC1=C(C(=O)NCc2cn(C)cn2)C(c2ccccc2Cl)N=C(Nc2nc3ccc(F)cc3o2)N1 (configuration not stated)
56 | – | > 30 | < 1 | – | COC(=O)c1cncc(NC(=O)C2=C(C)NC(Nc3nc4ccccc4o3)=NC2c2ccccc2Cl)c1 (configuration not stated)
57 | – | > 30 | < 1 | – | CC1=C(C(=O)Nc2ccc(CO)cc2)C(c2ccccc2Cl)N=C(Nc2nc3ccccc3o2)N1 (configuration not stated)
58 | 6.85 | – | – | – | CC1=C(C(=O)Nc2ccc(C(N)=O)cn2)C(c2ccccc2Cl)N=C(Nc2nc3ccc(F)cc3o2)N1 (configuration not stated)
59 | 19.3 | – | – | – | CC1=C(C(=O)Nc2nc(C(=O)O)cs2)C(c2ccccc2Cl)N=C(Nc2nc3ccccc3o2)N1 (configuration not stated)
60 | 34.4 | – | – | – | CC1=C(C(=O)Nc2ccc(-n3cncn3)cc2)C(c2ccccc2Cl)N=C(Nc2nc3ccccc3o2)N1 (configuration not stated)
61 | – | 8.09 | < 1 | – | COC(=O)Cc1nnc(NC(=O)C2=C(C)NC(Nc3nc4ccccc4o3)=NC2c2ccccc2Cl)s1 (configuration not stated)
